Reference: ChEMBL document CHEMBL4052706, “Isolation, structure elucidation, and synthesis of antiplasmodial quinolones from Crinum firmifolium” (Bioorg Med Chem, 2017)

Tests used:
Plasmodium falciparum [1] = test: Antiplasmodial activity against chloroquine-sensitive Plasmodium falciparum 3D7 incubated for 72 hrs by SYBR green 1 dye based fluorescence assay; format: functional; conditions: 3D7, 72 h
[2] = Selectivity ratio of IC50 for human A2780 cells to IC50 for chloroquine/mefloquine-resistant Plasmodium falciparum Dd2
Plasmodium falciparum [3] = test: Antiplasmodial activity against chloroquine/mefloquine-resistant Plasmodium falciparum Dd2 incubated for 72 hrs by SYBR green 1 dye based fluorescence assay; format: functional; conditions: Dd2, 72 h
A2780 = test: Antiproliferative activity against human A2780 cells after 2 days by Alamar blue assay; format: cell-based; conditions: A2780, 48 h

| Structure (SMILES) | IC50 (Plasmodium falciparum [1]) [µM] | Ratio IC50 [2] | IC50 (Plasmodium falciparum [3]) [µM] | IC50 (A2780) [µM] |
| --- | --- | --- | --- | --- |
| CC(C)CCCCCc1cc(=O)c2ccccc2[nH]1 | 0.501 | 57.7 | 0.583 | 34 |
| CCCCCCCCc1cc(=O)c2ccccc2[nH]1 | – | 3.4 | 3.65 | 12 |
| CNc1ccccc1-c1cc2c(cc1CO)OCO2 | – | – | > 39 | > 78 |
| CCCCCCCc1cc(=O)c2ccccc2[nH]1 | – | – | 1.31 | 35 |
| CCCC(C)CCCc1cc(=O)c2ccccc2[nH]1 (centres undefined) | 0.385 | 89 | 0.33 | 29 |
| CC(=O)O[C@H]1C(=O)[C@@]2(C)[C@H]([C@H](OC(=O)c3ccccc3)[C@]3(O)C[C@H](OC(=O)[C@H](O)[C@@H](NC(=O)c4ccccc4)c4ccccc4)C(C)=C1C3(C)C)[C@]1(OC(C)=O)CO[C@@H]1C[C@@H]2O [PACLITAXEL] | – | – | – | 0.0137 |
| CCC(C)CCCCc1cc(=O)c2ccccc2[nH]1 (centres undefined) | 0.921 | 11.6 | 0.75 | 8.7 |
| COc1cc2c(cc1O)c(=O)n1ccc3cccc2c31 | – | – | > 38 | > 75 |
| C[C@@H]1CC[C@H]2[C@@H](C)C(=O)O[C@@H]3O[C@@]4(C)CC[C@@H]1[C@]32OO4 [ARTEMISININ] | 0.0059 | – | 0.009 | – |
